The text below walks through data of patent US20120165310A1, “ETHER DERIVATIVES OF BICYCLIC HETEROARYLS” (NOVARTIS AG, priority 2009, published 2012).

The structures appear in SMILES notation. pIC50: −log10 of the molar value.

The target in the test is T1, IGF-1R (Homo sapiens, UniProt P08069).
T1 construct: expressed in transfected cells; host or cells: Hek293 (Hek293-IGF1R)
T1 sequence (P08069 31-1367): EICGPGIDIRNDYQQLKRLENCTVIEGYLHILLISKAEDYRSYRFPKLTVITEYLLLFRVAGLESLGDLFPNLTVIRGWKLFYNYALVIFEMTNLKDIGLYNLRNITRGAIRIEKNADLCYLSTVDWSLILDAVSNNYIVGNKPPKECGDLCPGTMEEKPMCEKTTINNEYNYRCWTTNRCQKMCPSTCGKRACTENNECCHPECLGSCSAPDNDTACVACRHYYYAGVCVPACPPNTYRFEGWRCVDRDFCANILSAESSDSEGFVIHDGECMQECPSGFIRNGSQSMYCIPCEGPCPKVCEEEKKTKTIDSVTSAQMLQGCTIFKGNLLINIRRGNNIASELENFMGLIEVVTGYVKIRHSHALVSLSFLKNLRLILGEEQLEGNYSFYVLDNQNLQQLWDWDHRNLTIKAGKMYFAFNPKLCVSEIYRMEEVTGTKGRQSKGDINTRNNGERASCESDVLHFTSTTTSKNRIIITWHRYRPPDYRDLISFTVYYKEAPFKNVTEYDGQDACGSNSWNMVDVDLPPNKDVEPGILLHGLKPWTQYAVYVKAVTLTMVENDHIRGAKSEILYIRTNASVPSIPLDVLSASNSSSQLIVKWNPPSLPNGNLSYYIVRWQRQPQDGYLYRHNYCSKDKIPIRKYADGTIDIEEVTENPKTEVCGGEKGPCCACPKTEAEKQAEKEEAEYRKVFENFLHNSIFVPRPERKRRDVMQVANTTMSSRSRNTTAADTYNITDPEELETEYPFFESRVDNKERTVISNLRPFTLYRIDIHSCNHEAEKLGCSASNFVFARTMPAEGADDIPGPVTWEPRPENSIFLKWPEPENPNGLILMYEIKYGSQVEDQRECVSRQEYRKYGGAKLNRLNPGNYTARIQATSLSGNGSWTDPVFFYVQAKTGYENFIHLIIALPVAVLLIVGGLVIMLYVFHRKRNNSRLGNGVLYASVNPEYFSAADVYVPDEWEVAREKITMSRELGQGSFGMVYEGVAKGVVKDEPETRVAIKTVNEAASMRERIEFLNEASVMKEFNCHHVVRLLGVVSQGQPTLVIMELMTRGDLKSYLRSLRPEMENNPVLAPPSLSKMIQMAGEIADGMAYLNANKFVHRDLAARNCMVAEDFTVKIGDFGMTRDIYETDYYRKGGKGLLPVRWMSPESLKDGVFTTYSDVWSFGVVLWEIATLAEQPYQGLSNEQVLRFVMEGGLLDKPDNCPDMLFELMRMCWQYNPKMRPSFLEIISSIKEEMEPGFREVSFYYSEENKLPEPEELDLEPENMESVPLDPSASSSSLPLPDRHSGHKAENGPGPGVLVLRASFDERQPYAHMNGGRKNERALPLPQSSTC
Kind of test: Cellular IGF-1R assay: capture ELISA (MSD) of receptor phosphorylation in Hek293 cells. Type of test: cell-based. To be noted: Hek293-IGF1R cells, 1 h pre-incubation, 10 min IGF stimulation, pIGF1R capture ELISA. The procedure, abridged: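 IC50 from 4-parameter fit of IGF1R phosphorylation, normalised to IGF-stimulated and unstimulated controls, measured by MSD capture ELISA on lysates. Hek293-IGF1R cells in starvation medium got compound 1 h (top 10 μM, 3-fold steps, 0.1% DMSO) before a 10 min pulse of 1.0 ng/μL IGF.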
For `CC1CCC(COc2cccc(-c3cn(C4CC(CN5CCC5)C4)c4ncnc(N)c34)c2)O1` (single isomer, unassigned) [Example 6, cis-(RR and SS)-7-(3-azetidin-1-ylmethyl-cyclobutyl)-5-[3-(5-methyl-tetrahydro-furan-2-ylmethoxy)-phenyl]-7H-pyrrolo[2,3-d]pyrimidin-4-ylamine], the pIC50 is 7.52. The result for `CC1CCC(COc2cccc(-c3cn(C4CC(CN5CCC5)C4)c4ncnc(N)c34)c2)O1` (single isomer, unassigned) [Example 7, cis-(RR and SS)-7-(3-azetidin-1-ylmethyl-cyclobutyl)-5-[3-(5-methyl-tetrahydro-furan-2-ylmethoxy)-phenyl]-7H-pyrrolo[2,3-d]pyrimidin-4-ylamine] reads 6.93 to 7.02; that for `CC1(C)CCC(COc2cccc(-c3cn(C4CC(CN5CCC(F)C5)C4)c4ncnc(N)c34)c2)O1` (single isomer, unassigned) [Example 39], 6.65; that for `CC1(C)CCC(COc2cccc(-c3cn(C4CC(CN5CCC(F)C5)C4)c4ncnc(N)c34)c2)O1` (single isomer, unassigned) [Example 45], 7.46. For `CC1(C)CCC(COc2cccc(-c3cn(C4CC(CN5CCC(F)C5)C4)c4ncnc(N)c34)c2)O1` (single isomer, unassigned) [Example 46], the pIC50 was 7.82. In turn, `CC1(C)CCC(COc2cccc(-c3cn([C@H]4C[C@@H](CN5CCC(F)(F)CC5)C4)c4ncnc(N)c34)c2)O1` (single isomer, unassigned) [Example 54] gave a pIC50 of 6.92 to 7.35. Consider `CC1(C)CCC(COc2cccc(-c3cn([C@H]4C[C@@H](CN5CCC(F)(F)CC5)C4)c4ncnc(N)c34)c2)O1` (single isomer, unassigned) [Example 55], for which the pIC50 is 7.42 to 7.66. In turn, `CC1(C)CCC(COc2cccc(-c3cn([C@H]4C[C@@H](CN5CCC(F)CC5)C4)c4ncnc(N)c34)c2)O1` (single isomer, unassigned) [Example 59, 7-[cis-3-(4-fluoro-piperidin-1-ylmethyl)-cyclobutyl]-5-[3-(5,5-dimethyl-tetrahydro-furan-2-ylmethoxy)-phenyl]-7H-pyrrolo[2,3-d]pyrimidin-4-ylamine] showed a negative-log IC50 (pIC50) of 7.74. As for `CC1(C)CCC(COc2cccc(-c3cn([C@H]4C[C@@H](CN5CCS(=O)(=O)CC5)C4)c4ncnc(N)c34)c2)O1` (single isomer, unassigned) [Example 66], the pIC50 was over 8.40. In the case of `CC1(C)CCC(COc2cccc(-c3cn([C@H]4C[C@@H](CN5CCS(=O)(=O)CC5)C4)c4ncnc(N)c34)c2)O1` (single isomer, unassigned) [Example 67], the negative-log IC50 (pIC50) is 7.82.

Compound `CC1(C)CCC(COc2cccc(-c3cn([C@H]4C[C@@H](CN5CCC(F)CC5)C4)c4ncnc(N)c34)c2)O1` (single isomer, unassigned) [Example 74, 5-[3-(5,5-dimethyl-tetrahydro-furan-2-ylmethoxy)-phenyl]-7-[cis-3-(4-fluoro-piperidin-1-ylmethyl)-cyclobutyl]-7H-pyrrolo[2,3-d]pyrimidin-4-ylamine] showed a negative logarithm of the IC50 (pIC50) of 7.28. Take `Nc1ncnc2c1c(-c1cccc(OCC34CCC(CC3)O4)c1)cn2C1CC(O)(CN2CCCC2CO)C1` (single isomer, unassigned) [Example 200]: the pIC50 was 6.58. The result for `Nc1ncnc2c1c(-c1cccc(OCC34CCC(CC3)O4)c1)cn2C1CC(O)(CN2CCCC2CO)C1` (single isomer, unassigned) [Example 202] reads 6.41.

`Nc1ncnc2c1c(-c1cccc(OCC34CCC(CC3)O4)c1)cn2C1CC(O)(CN2CCC(O)C2)C1` (single isomer, unassigned) [Example 203] gave a pIC50 of 6.30. Consider `Nc1ncnc2c1c(-c1cccc(OCC34CCC(CC3)O4)c1)cn2C1CC(O)(CN2CCC(O)C2)C1` (single isomer, unassigned) [Example 204], for which the pIC50 is 7.28. For the compound `Nc1ncnc2c1c(-c1cccc(OCC34CCC(CC3)O4)c1)cn2C1CC(O)(CN2CCC(O)C2)C1` (single isomer, unassigned) [Example 206], the pIC50 is 6.54.

`Nc1ncnc2c1c(-c1cccc(OCC34CCC(CC3)O4)c1)cn2C1CC(O)(CN2CCC(O)C2)C1` (single isomer, unassigned) [Example 207] had a pIC50 of 6.49. The result for `Nc1ncnc2c1c(-c1cccc(OCC34CCC(CC3)O4)c1)cn2C1CC(O)(CN2CCCC2CO)C1` (single isomer, unassigned) [Example 209] reads 7.22.

The compound `Nc1ncnc2c1c(-c1cccc(OCC34CCC(CC3)O4)c1)cn2C1CC(O)(CN2CCCC2CO)C1` (single isomer, unassigned) [Example 211] had a negative-log IC50 (pIC50) of 6.65. In turn, `Nc1ncnc2c1c(-c1cccc(OCC34CCC(CC3)O4)c1)cn2C1CC(CN2CC3CC2C[S+]3[O-])C1` (single isomer, unassigned) [Example 228] gave a pIC50 of 7.82 to 8.00. `Nc1ncnc2c1c(-c1cccc(OCC34CCC(CC3)O4)c1)cn2C1CC(CN2CC3CC2C[S+]3[O-])C1` (single isomer, unassigned) [Example 229] had a pIC50 of 6.20. `Nc1ncnc2c1c(-c1cccc(OC[C@@H]3CCCO3)c1)cn2[C@H]1C[C@@H](CN2CCS(=O)(=O)CC2)C1` [Example 4, cis-7-(3-[(1,1-dioxidothiomorpholin-4-yl)methyl]cyclobutyl}-5-{3-[(2S)-tetrahydrofuran-2-ylmethoxy]phenyl}-7H-pyrrolo[2,3-d]pyrimidin-4-amine] showed a pIC50 of 7.44.

In turn, `CC1CCC(COc2cccc(-c3cn([C@H]4C[C@@H](CN5CCC5)C4)c4ncnc(N)c34)c2)O1` (stereo partly drawn) [Example 5, cis-7-(3-azetidin-1-ylmethyl-cyclobutyl)-5-[3-(5-methyl-tetrahydro-furan-2-ylmethoxy)-phenyl]-7H-pyrrolo[2,3-d]pyrimidin-4-ylamine] showed a pIC50 of 7.24 to 7.29. The result for `CC1(C)CCC(COc2cccc(-c3cn(C4CC(CN5CCS(=O)(=O)CC5)C4)c4ncnc(N)c34)c2)O1` (stereo not shown) [Example 14, 5-[3-(5,5-dimethyl-tetrahydro-furan-2-ylmethoxy)phenyl]-7-[3-(1,1-dioxothiomorpholin-4-ylmethyl)-cyclobutyl]-7H-pyrrolo[2,3-d]pyrimidin-4-ylamine] reads 7.77; that for `Nc1ncnc2c1c(-c1cccc(OC[C@@H]3CCCO3)c1)cn2[C@H]1C[C@@H](CN2CCC(F)(F)CC2)C1` [Example 16, cis-7-[3-(4,4-Difluoro-piperidin-1-ylmethyl)-cyclobutyl]-5-{3-[(S)-1-(tetrahydrofuran-2-yl)methoxy]-phenyl}-7H-pyrrolo[2,3-d]pyrimidin-4-ylamine], 6.66 to 7.05; that for `Nc1ncnc2c1c(-c1cccc(OCC34CCC(CC3)O4)c1)cn2C1CC(CN2CCC2)C1` (stereo not shown) [Example 23, 7-(3-azetidin-1-ylmethyl-cyclobutyl)-5-[3-(7-oxa-bicyclo[2.2.1]hept-1-ylmethoxy)-phenyl]-7H-pyrrolo[2,3-d]pyrimidin-4-ylamine], 7.22 to 7.35.

Consider `Nc1ncnc2c1c(-c1cccc(OCC34CCC(CC3)O4)c1)cn2C1CC(CN2CCS(=O)(=O)CC2)C1` (stereo not shown) [Example 24, 7-[3-(1,1-dioxo-1-thiomorpholin-4-ylmethyl)-cyclobutyl]-5-[3-(7-oxa-bicyclo[2.2.1]hept-1-ylmethoxy)-phenyl]-7H-pyrrolo[2,3-d]pyrimidin-4-ylamine], for which the negative-log IC50 (pIC50) was 8.40 to 8.41. The compound `Nc1ncnc2c1c(-c1cccc(OCC34CCC(CC3)O4)c1)cn2C1CC(CN2CCC[C@H]2CO)C1` (stereo partly drawn) [Example 25, [(S)-1-(3-{4-amino-5-[3-(7-oxa-bicyclo[2.2.1]hept-1-ylmethoxy)-phenyl]-pyrrolo[2,3-d]pyrimidin-7-yl}-cyclobutylmethyl)-pyrrolidin-2-yl]-methanol] gave a pIC50 of 7.85 to 8.40.

`Nc1ncnc2c1c(-c1cccc(OCC34CCC(CC3)O4)c1)cn2C1CC(CN2CC(O)C2)C1` (stereo not shown) [Example 26, 1-(3-{4-amino-5-[3-(7-oxa-bicyclo[2.2.1]hept-1-ylmethoxy)-phenyl]-pyrrolo[2,3-d]pyrimidin-7-yl}-cyclobutylmethyl)azetidin-3-ol] showed a negative logarithm of the IC50 (pIC50) of 7.42. On to `Nc1ncnc2c1c(-c1cccc(OCC3CCCCO3)c1)cn2C1CC(CN2CC[C@@H](F)C2)C1` (stereo partly drawn) [Example 27, 7-[3-((R)-3-fluoro-pyrrolidin-1-ylmethyl)-cyclobutyl]-5-[3-(tetrahydro-pyran-2-ylmethoxy)-phenyl]-7H-pyrrolo[2,3-d]pyrimidin-4-ylamine], for which the pIC50 was 6.46.

Regarding `NC(=O)[C@H]1CCCN1C[C@H]1C[C@@H](n2cc(-c3cccc(OCC4CCCCO4)c3)c3c(N)ncnc32)C1` (stereo partly drawn) [Example 29, (R)-1-(cis-3-{4-amino-5-[3-(tetrahydro-pyran-2-ylmethoxy)-phenyl]-pyrrolo[2,3-d]pyrimidin-7-yl}-cyclobutylmethyl)-pyrrolidine-2-carboxylic acid amide], the negative logarithm of the IC50 (pIC50) is 6.82 to 6.83. The result for `Nc1nccn2c1c(-c1cccc(OCC3CCCCO3)c1)nc2[C@H]1C[C@@H](CN2CCS(=O)(=O)CC2)C1` (stereo partly drawn) [Example 30, 3-[cis-3-(1,1-Dioxothiomorpholin-4-ylmethyl)-cyclobutyl]-1-[3-(tetrahydro-pyran-2-ylmethoxy)-phenyl]-imidazo[1,5-a]pyrazin-8-ylamine] reads 6.60. Under `Nc1ncnc2c1c(-c1cccc(OCC3CCCCO3)c1)cn2[C@H]1C[C@@H](CN2CC[C@@H](O)C2)C1` (stereo partly drawn) [Example 33, (R)-1-(cis-3-{4-amino-5-[3-(tetrahydro-pyran-2-ylmethoxy)-phenyl]-pyrrolo[2,3-d]pyrimidin-7-yl}-cyclobutylmethyl)-pyrrolidin-3-ol] stands 6.63; under `Nc1ncnc2c1c(-c1cccc(OCC3CCCCO3)c1)cn2[C@H]1C[C@@H](CN2CC[C@H](O)C2)C1` (stereo partly drawn) [Example 34, (S)-1-(cis-3-{4-amino-5-[3-(tetrahydro-pyran-2-ylmethoxy)-phenyl]-pyrrolo[2,3-d]pyrimidin-7-yl}-cyclobutylmethyl)-pyrrolidin-3-ol], 6.48.
